The values below come from patent US6031006A, “Method of treating diabetic nephropathy” (BioNumerik Pharmaceuticals, Inc., priority 1999, dated 2000).

The target in data set [1] is T1, aldose reductase (human recombinant, expressed in SF 9 cells) (Homo sapiens, UniProt P15121). Put plainly: Aldose reductase assay, reduction of glucose to sorbitol (NADPH oxidation, absorbance at 340 nm). It counts as biochemical. As to the method:
(§1) Aldose reductase assays were as described in Nishimura C., Yamaoka T., Mizutani M., Yamashita K., Akera T., Tanimoto T., Purification And Characterization Of The Recombinant Human Aldose Reductase Expressed In Baculovirus System, Biochem. Biophys. Acta, Jun. 24, 1991; 1078(2):171-8.
(§2) Briefly, Dimesna (0-20 μM) was incubated at 37° C. with aldose reductase (0.0016 units, human recombinant, expressed in SF 9 cells) and NADPH (0.15 mM) in sodium phosphate buffer (100 mM, pH 6.2). To initiate assays, glucose (10-150 mM) was added to reactions and the decrease in absorbance at 340 nm (oxidation of NADPH) was monitored. Assays were run in duplicate or triplicate. Slopes were calculated using Varian-Cary software package 2.0 and averaged. In all cases errors were 4% or less. Lineweaver Burk analysis (Enzyme Kinetics, version 1.61) was used to calculate inhibition constants.

Data set [2] concerns the target T1, aldose reductase (human recombinant, expressed in SF 9 cells). Briefly: Aldose reductase assay, NADPH dependent reduction of glyceraldehyde. In kind it is biochemical. To be noted: substrate glyceraldehyde 0.050-6 mM, 37° C., Lineweaver Burk analysis, read-out: Ki, inhibition of aldose reductase catalyzed reduction of glyceraldehyde to aldose. As to the method: as §1, §2
Aldose reductase assays were as described above. Dimesna (0-30 mM) was evaluated for its effect on the NADPH dependent reduction of glyceraldehyde (0.050-6 mM) to aldose at 37° C. Assays were run in duplicate or triplicate. Slopes were calculated using Varian-Cary software package 2.0 and averaged. In all cases errors were 4% or less. Lineweaver Burk analysis (Enzyme Kinetics, version 1.61) was used to calculate inhibition constants.

For a further data set, the system named is humans. To be noted: cited from earlier work.
The test system of another data set is dogs. To be noted: intravenous; cited from earlier work.
Another data set relates to mice. To be noted: intravenous; cited from earlier work.
For data set [3] the following is noted: accepted value; cited from earlier work.

With `O=S(=O)([O-])CCSSCCS(=O)(=O)[O-].[Na+].[Na+]` [Dimesna, disodium 2,2'-dithiobis ethane sulfonate], the “Type of inhibition of the aldose reductase reaction” value in data set [1] (Lineweaver Burk plots nearly parallel, glucose and glyceraldehyde substrates) is on record as “uncompetitive inhibition”. Moreover, the Ki – broadly, a measure of affinity in units of concentration, obtained from inhibition or displacement – was 32 µM in data set [1] (substrate glucose 10-150 mM, NADPH 0.15 mM, pH 6.2, 37° C., Lineweaver Burk analysis, read-out: Ki, inhibition of aldose reductase catalyzed reduction of glucose to sorbitol) and 15.5 µM in data set [2]. Also, the “Dose administered with no adverse effects” value with humans was “exceeding 15 g/m^2”; in the data set on dogs it was greater than 3750 mg/kg; in the data set on mice, greater than 3750 mg/kg.

For the molecule `[Cl-].[Na+]` [common table salt], the “oral LD50” value in data set [3] is given as 3750 mg/kg.
